The record followed here is patent US10995091B2 (Proximagen, LLC, priority 2010, dated 2021).

Molecules are shown by their SMILES.

For this assay, the target named is T1, Human CXCR4 transfected HEK293 cells (Homo sapiens, UniProt P61073).
T1 construct: expressed in transfected cells; host or cells: HEK293
T1 sequence (P61073 whole entry): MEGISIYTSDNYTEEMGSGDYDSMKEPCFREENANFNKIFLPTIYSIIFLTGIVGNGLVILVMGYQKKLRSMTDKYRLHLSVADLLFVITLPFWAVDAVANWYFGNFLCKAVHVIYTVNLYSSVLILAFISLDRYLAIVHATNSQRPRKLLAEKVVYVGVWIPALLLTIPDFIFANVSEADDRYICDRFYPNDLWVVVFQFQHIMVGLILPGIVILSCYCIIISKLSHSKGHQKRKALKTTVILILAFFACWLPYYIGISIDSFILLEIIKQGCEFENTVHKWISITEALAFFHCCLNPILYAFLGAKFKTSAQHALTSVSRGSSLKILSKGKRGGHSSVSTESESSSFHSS
Kind of assay: CXCR4 functional calcium assay (calcium flux FLIPR, antagonism of SDF1 response). The assay is classed as cell-based. To be noted: CXCR4 functional activity, antagonism of SDF1 (EC50 concentration), read-out: CXCR4 fKi. Summed up: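 Dose-dependent antagonism of the SDF1 response was read by FLIPR as Fluo-4 calcium signal (2 μM dye) in CXCR4-expressing human HEK293 cells, in HBSS with probenecid, BSA and HEPES at pH 7.4 and 37° C. Test compound was given before an EC50-level SDF1 challenge. Curves were then fitted.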
In the case of `CC(CC(F)(F)F)N1CCC(N2CCCN(c3cccc(C(=O)NCC4CC4)n3)CC2)CC1` (stereo not drawn) [Example 70, N-(Cyclopropylmethyl)-6-{4-[1-(4,4,4-trifluorobutan-2-yl)piperidin-4-yl]-1,4-diazepan-1-yl}pyridine-2-carboxamide], the Ki lay within 20 to 100 nM.

Regarding `CC(C)N1CCC(N2CCCN(c3cccc(-c4ncc(C5CC5)[nH]4)n3)CC2)CC1` [Example 111, 1-[6-(4-Cyclopropyl-1H-imidazol-2-yl)pyridine-2-yl]-4-[1-(propan-2-yl)piperidin-4-yl]-1,4-diazepane], the Ki was under 20 nM.

Take `CC(C)N1CCOCC1CCN1CCCN(c2cccc(C(=O)Nc3ccncc3)n2)CC1` (stereo not drawn) [Example 201, 6-(4-{2-[4-(Propan-2-yl)morpholin-3-yl]ethyl}-1,4-diazepan-1-yl)-N-(pyridin-4-yl)pyridine 2-carboxamide]: the Ki lay within 100 to 500 nM.

For the compound `[2H]C1([2H])CCN(C2CCN(Cc3ccc(F)cc3Cl)CC2)CCN1c1cccc(C(=O)Nc2ccncc2)n1` [Example 205, 6-(4-{1-[(2-Chloro-4-fluorophenyl)methyl]piperidin-4-yl}-7,7-dihydrogenio-1,4-diazepan-1-yl)-N-(pyridin-4-yl)pyridine-2-carboxamide], the Ki was under 20 nM.

Take `CC(C)N1CCC(N2CCN(c3cccc(C(=O)NCC4CC4)n3)CCC2C)CC1` (stereo not drawn) [Example 184, N-(Cyclopropylmethyl)-6-{5-methyl-4-[1-(propan-2-yl)piperidin-4-yl]-1,4-diazepan-1-yl}pyridine-2-carboxamide]: the Ki fell in the range of 20 to 100 nM.

As to `O=C(NC1CCOCC1)c1cccc(N2CCCN(C3CCN(Cc4ccccc4Cl)CC3)CC2)n1` [Example 52, 6-(4-{1-[(2-Chlorophenyl)methyl]piperidin-4-yl}-1,4-diazepan-1-yl)-N-(oxan-4-yl)pyridine-2-carboxamide], the Ki fell in the range of 20 to 100 nM.

Turning to `C[C@H](N1CCC(N2CCCN(c3cccc(C(=O)Nc4ccncc4)n3)CC2)CC1)C(F)(F)F` [Example 82, N-(Pyridin-4-yl)-6-(4-{1-[(2S)-1,1,1-trifluoropropan-2-yl]piperidin-4-yl}-1,4-diazepan-1-yl)pyridine-2-carboxamide], the Ki is under 20 nM.

`CC(C)N1CCC(N2CCCN(c3cccc(C(=O)NCc4ncco4)n3)CC2)CC1` [Example 38, N-(1,3-Oxazol-2-ylmethyl)-6-{4-[1-(propan-2-yl)piperidin-4-yl]-1,4-diazepan-1-yl}pyridine-2-carboxamide]: the Ki was in the range of 20 to 100 nM.

For `CCc1cnc(-c2cccc(N3CCCN(C4CCN(C(C)C)CC4)CC3)n2)[nH]1` [Example 108, 1-[6-(4-Ethyl-1H-imidazol-2-yl)pyridine-2-yl]-4-[1-(propan-2-yl)piperidin-4-yl]-1,4-diazepane], the Ki was under 20 nM.

`[2H]C1([2H])CCN(C2CCN([C@@H](C)CC)CC2)CCN1c1cccc(C(=O)Nc2ccncc2)n1` [Example 177, 6-(4-{1-[(2S)-Butan-2-yl]piperidin-4-yl}-7,7-dihydrogenio-1,4-diazepan-1-yl)-N-(pyridine-4-yl)pyridine-2-carboxamide]: the Ki is under 20 nM.

`CC(C)N1CCC(N2CCCN(c3cccc(C(=O)NCc4ccco4)n3)CC2)CC1` [Example 40, N-(Furan-2-ylmethyl)-6-{4-[1-(propan-2-yl)piperidin-4-yl]-1,4-diazepan-1-yl}pyridine-2-carboxamide]: the Ki was under 20 nM.

Consider `CC(C)N1CCC(N2CC3CC(C2)N(c2cccc(C(=O)NCC4CC4)n2)C3)CC1` (stereo not drawn) [Example 200, N-(Cyclopropylmethyl)-6-{3-[1-(propan-2-yl)piperidin-4-yl]-3,6-diazabicyclo[3.2.1]octan-6-yl}pyridine-2-carboxamide], for which the Ki is 500 to 1000 nM.

As to `CC(C)N1CCC(N2CCCN(c3cccc(C(=O)N[C@H]4CCOC4)n3)CC2)CC1` [Example 18, N-[(3S)-Oxolan-3-yl]-6-{4-[1-(propan-2-yl)piperidin-4-yl]-1,4-diazepan-1-yl}pyridine-2-carboxamide], the Ki lay within 100 to 500 nM.

Take `Cc1nc(-c2cccc(NCCNC3CCN(C(C)C)CC3)n2)[nH]c1C1CC1` [Example 236, N-(2-{[6-(5-Cyclopropyl-4-methyl-1H-imidazol-2-yl)pyridin-2-yl]amino}ethyl)-1-(propan-2-yl)piperidin-4-amine]: the Ki lay within 100 to 500 nM.

On to `O=C(Nc1ccncc1)c1cccc(N2CCC3CCCC(C2)N3C2CCN(Cc3ccccc3Cl)CC2)n1` (stereo not drawn) [Example 218, 6-(10-{1-[(2-Chlorophenyl)methyl]piperidin-4-yl}-3,10-diazabicyclo[4.3.1]decan-3-yl)-N-(pyridin-4-yl)pyridine-2-carboxamide], for which the Ki lay in the range of 100 to 500 nM.

In the case of `CC(C)N1CCC(NC2CCN(c3cccc(C(=O)Nc4ccncc4)n3)CC2)CC1` [Example 249, 6-(4-{[1-(Propan-2-yl)piperidin-4-yl]amino}piperidin-1-yl)-N-(pyridin-4-yl)pyridine-2-carboxamide], the Ki lay in the range of 100 to 500 nM.

Turning to `COc1ccc(NC(=O)c2cccc(N3CCCN(C4CCN(C(C)C)CC4)CC3)n2)cc1` [Example 26, N-(4-Methoxyphenyl)-6-{4-[1-(propan-2-yl)piperidin-4-yl]-1,4-diazepan-1-yl}pyridine-2-carboxamide], the Ki is 20 to 100 nM.

Turning to `O=C(NCc1cccnc1)c1cccc(N2CCCN(C3CCN(Cc4ccccc4Cl)CC3)CC2)n1` [Example 55, 6-(4-{1-[(2-Chlorophenyl)methyl]piperidin-4-yl}-1,4-diazepan-1-yl)-N-(pyridine-3-ylmethyl)pyridine-2-carboxamide], the Ki was 20 to 100 nM.

Turning to `CCNC(=O)c1cccc(N2CCCN(C3CCN(Cc4ccccc4Cl)CC3)CC2)n1` [Example 137, 6-(4-{1-[(2-Chlorophenyl)methyl]piperidin-4-yl}-1,4-diazepan-1-yl)-N-ethylpyridine-2-carboxamide], the Ki is 20 to 100 nM.

As to `[2H]C1([2H])CCN(C2CCN(C(C)C)CC2)CCN1c1cccc(C(=O)NCC2CC2)n1` [Example 181, N-(Cyclopropylmethyl)-6-{7,7-dihydrogenio-4-[1-(propan-2-yl)piperidin-4-yl]-1,4-diazepan-1-yl}pyridine-2-carboxamide], the Ki lay in the range of 20 to 100 nM.

For `CC(C)N1CCC(N2CCCN(c3cccc(-c4nc5ccc(C#N)cc5[nH]4)n3)CC2)CC1` [Example 149, 2-(6-{4-[1-(Propan-2-yl)piperidin-4-yl]-1,4-diazepan-1-yl}pyridine-2-yl)-1H-1,3-benzodiazole-6-carbonitrile], the Ki is under 20 nM.

With `CCCCNC(=O)c1cccc(N2CCCN(CC3CN(C(C)C)CCO3)CC2)n1` (stereo not drawn) [Example 250, N-Butyl-6-(4-{[4-(propan-2-yl)morpholin-2-yl]methyl}-1,4-diazepan-1-yl)pyridine-2-carboxamide], the Ki lay in the range of 20 to 100 nM.

For the compound `Cc1nc(-c2cccc(N3CCCN(C4CCN(C5CCCC5)CC4F)CC3)n2)[nH]c1C1CC1` (stereo not drawn) [Example 214, 1-(1-Cyclopentyl-3-fluoropiperidin-4-yl)-4-[6-(4-cyclopropyl-5-methyl-1H-imidazol-2-yl)pyridin-2-yl]-1,4-diazepane], the Ki lay in the range of 100 to 500 nM.

In the case of `Cc1cc(NC(=O)c2cccc(N3CCCN(C4CCN(C(C)C)CC4)CC3)n2)ccn1` [Example 86, N-(2-Methylpyridin-4-yl)-6-{4-[1-(propan-2-yl)piperidin-4-yl]-1,4-diazepan-1-yl}pyridine-2-carboxamide], the Ki is under 20 nM.

For `CC(C)CNC(=O)c1cccc(N2CCCN(C3CCN(C(C)C)CC3)CC2)n1` [Example 6, N-(2-Methylpropyl)-6-{4-[1-(propan-2-yl)piperidin-4-yl]-1,4-diazepan-1-yl}pyridine-2-carboxamide], the Ki was 100 to 500 nM.

On to `Cc1ccc(N2CCCN(C3CCN(C(C)C)CC3)CC2)nc1C(=O)NCC1CC1` [Example 125, N-(Cyclopropylmethyl)-3-methyl-6-{4-[1-(propan-2-yl)piperidin-4-yl]-1,4-diazepan-1-yl}pyridine-2-carboxamide], for which the Ki fell in the range of 100 to 500 nM.

`CC(C)N1CCC(N2CCCN(c3cccc(-c4ncc(C(C)(C)C)[nH]4)n3)CC2)CC1` [Example 113, 1-[6-(4-tert-Butyl-1H-imidazol-2-yl)pyridine-2-yl]-4-[1-(propan-2-yl)piperidin-4-yl]-1,4-diazepane]: the Ki lay within 100 to 500 nM.

As for `Cc1cc(C(=O)NCC2CC2)nc(N2CCCN(C3CCN(Cc4ccccc4Cl)CC3)CC2)c1` [Example 268, 6-(4-{1-[(2-Chlorophenyl)methyl]piperidin-4-yl}-1,4-diazepan-1-yl)-N-(cyclopropylmethyl)-4-methylpyridine-2-carboxamide], the Ki fell in the range of 100 to 500 nM.

Regarding `CC(C)(C)C1CCC(N2CCCN(c3cccc(C(=O)NCc4cccnc4)n3)CC2)CC1` (stereo not drawn) [Example 256, 6-[4-(4-tert-Butylcyclohexyl)-1,4-diazepan-1-yl]-N-(pyridin-3-ylmethyl)pyridine-2-carboxamide], the Ki was in the range of 20 to 100 nM.

As for `CC(C)(C)N1CCC(N2CCCN(c3cccc(C(=O)NCC4CC4)n3)CC2)CC1` [Example 64, 6-[4-(1-tert-Butylpiperidin-4-yl)-1,4-diazepan-1-yl]-N-(cyclopropylmethyl)pyridine-2-carboxamide], the Ki lay within 20 to 100 nM.

Take `CC(C)N1CCC(N2CCCN(c3cccc(-c4c[nH]c5ccccc45)n3)CC2)CC1` [Example 102, 3-(6-{4-[1-(Propan-2-yl)piperidin-4-yl]-1,4-diazepan-1-yl}pyridine-2-yl)-1H-indole]: the Ki fell in the range of 500 to 1000 nM.

With `O=C(NC[C@H]1CCCO1)c1cccc(N2CCCN(C3CCN(Cc4ccccc4Cl)CC3)CC2)n1` [Example 51, 6-(4-{1-[(2-Chlorophenyl)methyl]piperidin-4-yl}-1,4-diazepan-1-yl)-N-[(2R)-oxolan-2-ylmethyl]pyridine-2-carboxamide], the Ki was 20 to 100 nM.

For the compound `O=C(NCC1CC1)c1cccc(N2CCCN(CCCNCc3ccccc3Cl)CC2)n1` [Example 258, 6-[4-(3-{[(2-Chlorophenyl)methyl]amino}propyl)-1,4-diazepan-1-yl]-N-(cyclopropylmethyl)pyridine-2-carboxamide], the Ki lay in the range of 100 to 500 nM.
